Measured values: ChEMBL document CHEMBL3272295, “Drugs derived from cannabinoids. 5. delta6a,10a-Tetrahydrocannabinol and heterocyclic analogs containing aromatic side chains” (J Med Chem, 1976)
The source made the active and inactive calls. No cut-off for these calls is given here.

What was measured:
[1] = test system: Rattus norvegicus; assay: Increase in motor activity in Long-Evans rat at 10 mg/kg, po after 2 hrs relative to vehicle-treated control; type: functional
[2] = test system: Mus musculus; assay: Analgesic activity in mouse assessed as inhibition of acetic acid-induced writhing at 10 mg/kg, po administered 30 mins prior to acetic acid challenge measured after 5 mins for 20 mins; type: functional
[3] = test system: Mus musculus; assay: Antianxiety activity in albino BALB/cJ mouse assessed as reduction in footshock-induced fighting behavior at 10 mg/kg, po after 30 to 90 mins; type: functional; parameters: scale not given: the % may be the effect or the level left
[4] = Acute toxicity in po dosed mouse; type: organism-based; conditions: in vivo
[5] = test system: Rattus norvegicus; assay: Antihypertensive activity in spontaneously hypertensive rat model assessed as reduction in blood pressure at 30 mg/kg, po after 24 hrs; type: functional; parameters: scale not given: the % may be the effect or the level left
[6] = test system: Rattus norvegicus; assay: Antihypertensive activity in spontaneously hypertensive rat model assessed as reduction in blood pressure at 30 mg/kg, po after 3 hrs; type: functional; parameters: scale not given: the % may be the effect or the level left
[7] = test system: Rattus norvegicus; assay: Antipsychotic activity in rat assessed as reduction of methamphetamine-induced hyperactivity at 10 mg/kg, po administered prior to methamphetamine challenge relative to vehicle-treated control; type: functional; parameters: scale not given: the % may be the effect or the level left
[8] = test system: Rattus norvegicus; assay: Antianxiety activity in Long-Evans rat assessed as reduction in motor activity at 1 mg/kg, po after 2 hrs relative to vehicle-treated control; type: functional; parameters: scale not given: the % may be the effect or the level left
[9] = test system: Rattus norvegicus; assay: Antiulcer activity in albino Sprague-Dawley rat stress ulcer model assessed as prevention of stress-induced gastric lesions by measuring ulcer index score at 40 mg/kg, po administered 30 mins prior to stress measured after 4 hrs; type: functional, Stomach
[10] = test system: Mus musculus; assay: Antidepressant activity in po dosed mouse assessed as potentiation of DOPA-induced effect administered 4 hrs prior to DOPA challenge; type: functional; conditions: read-out: MED
[11] = test system: Rattus norvegicus; assay: Antianxiety activity in Long-Evans rat assessed as reduction in motor activity at 0.5 mg/kg, po after 2 hrs relative to vehicle-treated control; type: functional; parameters: scale not given: the % may be the effect or the level left
[12] = test system: Felis catus; assay: Hypnotic activity in cat assessed as increase in non-REM sleep time at 0.5 mg/kg administered orally through diet measured for 12 hrs by EEG analysis; type: functional; conditions: route oral
[13] = test system: Rattus norvegicus; assay: Antiulcer activity in albino Sprague-Dawley rat reserpine ulcer model assessed as prevention of reserpine-induced gastric lesions by measuring ulcer index scores at 10 mg/kg, po administered 30 mins prior to reserpine challenge measured after 6 hrs; type: functional; conditions: Stomach
[14] = test system: Felis catus; assay: Hypnotic activity in cat assessed as increase in non-REM sleep time at 0.025 mg/kg administered orally through diet measured for 12 hrs by EEG analysis; type: functional; conditions: route oral
[15] = test system: Rattus norvegicus; assay: Antihypertensive activity in spontaneously hypertensive rat model assessed as reduction in blood pressure at 10 mg/kg, po after 24 hrs; type: functional; parameters: scale not given: the % may be the effect or the level left
[16] = test system: Rattus norvegicus; assay: Antiulcer activity in albino Sprague-Dawley rat shay ulcer model assessed as ulcer index scores at 50 mg/kg administered intraduodenally post pyloric ligation measured after 18.5 hrs relative to vehicle-treated control; type: functional; conditions: route intraduodenal
[17] = test system: Mus musculus; assay: Analgesic activity in po dosed mouse assessed as inhibition of acetic acid-induced writhing administered 30 mins prior to acetic acid challenge measured after 5 mins for 20 mins; type: functional
[18] = test system: Rattus norvegicus; assay: Antiulcer activity in albino Sprague-Dawley rat stress ulcer model assessed as prevention of stress-induced gastric lesions by measuring ulcer index score at 10 mg/kg, po administered 30 mins prior to stress measured after 4 hrs; type: functional, Stomach
[19] = test system: Rattus norvegicus; assay: Antihypertensive activity in spontaneously hypertensive rat model assessed as reduction in blood pressure at 10 mg/kg, po after 3 hrs; type: functional; parameters: scale not given: the % may be the effect or the level left
[20] = organism: Rattus norvegicus; assay: animal or person; type: functional; conditions: Charles River, route oral
Description: Antidiarrheal activity in Charles River rat assessed as inhibition of castor oil-induced diarrhea by measuring protected animals at 1 mg/kg, po administered 1 hr prior to castor oil challenge measured after 1 hr relative to vehicle-treated control

[21] = test system: Canis familiaris; assay: Antianxiety activity in po dosed dog assessed as ataxia administered as single dose measured up to 24 hrs; type: functional; conditions: Canis lupus familiaris, read-out: MED
[22] = organism: Rattus norvegicus; assay: animal or person; type: functional; conditions: Charles River, route oral; remark: listed apart in the source
Description: Antidiarrheal activity in Charles River rat assessed as inhibition of castor oil-induced diarrhea by measuring protected animals at 0.5 mg/kg, po administered 1 hr prior to castor oil challenge measured after 1 hr relative to vehicle-treated control

[23] = test system: Felis catus; assay: Hypnotic activity in cat assessed as increase in total sleep time at 0.25 mg/kg administered orally through diet measured for 12 hrs by EEG analysis; type: functional; conditions: route oral
[24] = test system: Rattus norvegicus; assay: Antiulcer activity in albino Sprague-Dawley rat shay ulcer model assessed as ulcer index scores at 20 mg/kg administered intraduodenally post pyloric ligation measured after 18.5 hrs relative to vehicle-treated control; type: functional; conditions: route intraduodenal
[25] = test system: Rattus norvegicus; assay: Antisecretory activity in Sprague-Dawley rat assessed as decrease in volume at 50 mg/kg, po administered 30 mins prior to pylorus ligation measured after 4 hrs relative to control; type: functional; parameters: scale not given: the % may be the effect or the level left
[26] = test system: Rattus norvegicus; assay: Antisecretory activity in Sprague-Dawley rat assessed as decrease in acid output at 50 mg/kg, po administered 30 mins prior to pylorus ligation measured after 4 hrs relative to control; type: functional; parameters: scale not given: the % may be the effect or the level left
[27] = test system: Mus musculus; assay: Antianxiety activity in albino BALB/cJ mouse assessed as reduction in footshock-induced fighting behavior at 1 mg/kg, po after 30 to 90 mins; type: functional; parameters: scale not given: the % may be the effect or the level left
[28] = test system: Felis catus; assay: Hypnotic activity in cat assessed as increase in total sleep time at 1 mg/kg administered orally through diet measured for 12 hrs by EEG analysis; type: functional; conditions: route oral
[29] = test system: Felis catus; assay: Hypnotic activity in cat assessed as increase in non-REM sleep time at 0.25 mg/kg administered orally through diet measured for 12 hrs by EEG analysis; type: functional; conditions: route oral
[30] = test system: Rattus norvegicus; assay: Antidiarrheal activity in Charles River rat assessed as inhibition of castor oil-induced diarrhea by measuring protected animals at 0.25 mg/kg, po administered 1 hr prior to castor oil challenge measured after 1 hr relative to vehicle-treated control; type: functional
[31] = test system: Rattus norvegicus; assay: Antipsychotic activity in rat assessed as reduction of methamphetamine-induced hyperactivity at 5 mg/kg, po administered prior to methamphetamine challenge relative to vehicle-treated control; type: functional; parameters: scale not given: the % may be the effect or the level left
[32] = test system: Felis catus; assay: Hypnotic activity in cat assessed as increase in total sleep time at 0.1 mg/kg administered orally through diet measured for 12 hrs by EEG analysis; type: functional; conditions: route oral
[33] = test system: Felis catus; assay: Hypnotic activity in cat assessed as increase in non-REM sleep time at 0.1 mg/kg administered orally through diet measured for 12 hrs by EEG analysis; type: functional; conditions: route oral
[34] = test system: Felis catus; assay: Hypnotic activity in cat assessed as decrease in total sleep time at 0.025 mg/kg administered orally through diet measured for 12 hrs by EEG analysis; type: functional; conditions: route oral
[35] = test system: Rattus norvegicus; assay: Antiulcer activity in albino Sprague-Dawley rat shay ulcer model assessed as ulcer index scores at 40 mg/kg administered intraduodenally post pyloric ligation measured after 18.5 hrs relative to vehicle-treated control; type: functional; conditions: route intraduodenal
[36] = test system: Rattus norvegicus; assay: Antihypertensive activity in spontaneously hypertensive rat model assessed as reduction in blood pressure at 3 mg/kg, po after 3 hrs; type: functional; parameters: scale not given: the % may be the effect or the level left
[37] = test system: Rattus norvegicus; assay: Antianxiety activity in Long-Evans rat assessed as reduction in motor activity at 10 mg/kg, po after 2 hrs relative to vehicle-treated control; type: functional; parameters: scale not given: the % may be the effect or the level left
[38] = test system: Rattus norvegicus; assay: Antisecretory activity in Sprague-Dawley rat assessed as decrease in pepsin output at 50 mg/kg, po administered 30 mins prior to pylorus ligation measured after 4 hrs relative to control; type: functional; parameters: scale not given: the % may be the effect or the level left
[39] = test system: Rattus norvegicus; assay: Antisecretory activity in Sprague-Dawley rat assessed as decrease in acidity at 50 mg/kg, po administered 30 mins prior to pylorus ligation measured after 4 hrs relative to control; type: functional; parameters: scale not given: the % may be the effect or the level left
[40] = test system: Rattus norvegicus; assay: Antiulcer activity in albino Sprague-Dawley rat reserpine ulcer model assessed as prevention of reserpine-induced gastric lesions by measuring ulcer index scores at 50 mg/kg, po administered 30 mins prior to reserpine challenge measured after 6 hrs; type: functional, Stomach
[41] = test system: Rattus norvegicus; assay: Antihypertensive activity in spontaneously hypertensive rat model assessed as reduction in blood pressure at 3 mg/kg, po after 24 hrs; type: functional; parameters: scale not given: the % may be the effect or the level left
[42] = test system: Felis catus; assay: Hypnotic activity in cat assessed as increase in total sleep time at 0.5 mg/kg administered orally through diet measured for 12 hrs by EEG analysis; type: functional; conditions: route oral
[43] = test system: Rattus norvegicus; assay: Increase in pepsin output in Sprague-Dawley rat at 50 mg/kg, po administered 30 mins prior to pylorus ligation measured after 4 hrs relative to control; type: functional
[44] = test system: Mus musculus; assay: Analgesic activity in mouse assessed as inhibition of acetic acid-induced writhing at 100 mg/kg, po administered 30 mins prior to acetic acid challenge measured after 5 mins for 20 mins; type: functional
[45] = test system: Rattus norvegicus; assay: Increase in motor activity in Long-Evans rat at 5 mg/kg, po after 2 hrs relative to vehicle-treated control; type: functional
[46] = test system: Rattus norvegicus; assay: Increase in methamphetamine-induced hyperactivity in rat at 5 mg/kg, po administered prior to methamphetamine challenge relative to vehicle-treated control; type: functional
[47] = test system: Rattus norvegicus; assay: Antisecretory activity in Sprague-Dawley rat assessed as decrease in pepsin concentration at 50 mg/kg, po administered 30 mins prior to pylorus ligation measured after 4 hrs relative to control; type: functional; parameters: scale not given: the % may be the effect or the level left
[48] = test system: Rattus norvegicus; assay: Increase in acid output in Sprague-Dawley rat at 50 mg/kg, po administered 30 mins prior to pylorus ligation measured after 4 hrs relative to control; type: functional
[49] = test system: Rattus norvegicus; assay: Increase in volume in Sprague-Dawley rat at 50 mg/kg, po administered 30 mins prior to pylorus ligation measured after 4 hrs relative to control; type: functional
[50] = test system: Rattus norvegicus; assay: Analgesic activity in po dosed Sprague-Dawley rat after 15 to 90 mins by tail flick test; type: functional
[51] = test system: Rattus norvegicus; assay: Antianxiety activity in Long-Evans rat assessed as reduction in motor activity at 100 mg/kg, po after 2 hrs relative to vehicle-treated control; type: functional; parameters: scale not given: the % may be the effect or the level left

## C#CCN1CCC2=C(C1)c1c(O)cc(C(C)CCc3ccc(F)cc3)cc1OC2(C)C (centres undefined)
[1]
  Activity: 44%
[2]
  inhibition in vivo at 10 mg/kg: 10%
[3]
  Activity: 0%
[4]
  LD50: ≥ 1000 mg/kg
[5]
  Activity: 13%
[6]
  Activity: 4%
[7]
  Activity: 0%

## C#CCN1CCC2=C(C1)c1c(O)cc(C(C)C(C)CCCCC)cc1OC2(C)C (centres undefined)
[8]
  Activity: 71%
[9]
  UI: 1.6
[10]
  minimal effective dose: 2 mg/kg
[11]
  Activity: 35%
[12]
  Time: 28 min
[13]
  Activity: inactive
[14]
  Time: 25 min
[15]
  Activity: 27%
[16]
  UI: 0.5
[17]
  ED50: 4.3 mg/kg
[18]
  UI: 1.3
[19]
  Activity: 23%
[20]
  inhibition in vivo at 1 mg/kg: 100%
[21]
  minimal effective dose: 1 mg/kg
[22]
  inhibition in vivo at 0.5 mg/kg: 63%
[23]
  Time: 56 min
[24]
  UI: 4.2
[3]
  Activity: 62%
[4]
  LD50: ≥ 1000 mg/kg
[25]
  Activity: 39.3%
[26]
  Activity: 49.8%
[27]
  Activity: 42%
[28]
  Time: 39 min
[29]
  Time: 21 min
[30]
  inhibition in vivo at 0.25 mg/kg: 20%
[31]
  Activity: 52%
[32]
  Time: 100 min
[33]
  Time: 62 min
[34]
  Time: -12 min
[35]
  UI: 0.3
[36]
  Activity: 7%
[37]
  Activity: 75%
[38]
  Activity: 41.9%
[39]
  Activity: 23.5%
[40]
  UI: 1.8
[41]
  Activity: 4%
[42]
  Time: 44 min
[7]
  Activity: 74%

## C#CCN1CCC2=C(C1)c1c(O)cc(CCCCC)cc1OC2(C)C
[43]
  Activity: 18.3%
[44]
  inhibition in vivo at 100 mg/kg: 19%
[12]
  Time: 12 min
[45]
  Activity: 6%
[3]
  Activity: 6%
[46]
  Activity: 47%
[4]
  LD50: ≥ 1000 mg/kg
[47]
  Activity: 8.3%
[48]
  Activity: 6.1%
[5]
  Activity: 9%
[6]
  Activity: 0%
[39]
  Activity: 14.8%
[42]
  Time: 28 min
[49]
  Activity: 24.6%

## CC(C)=CCN1CC[C@]2(C)c3cc(O)ccc3C[C@H]1[C@H]2C [(+)-PENTAZOCINE]
[50]
  ED50: 60 mg/kg
[17]
  ED50: 37.6 mg/kg
[22]
  inhibition in vivo at 0.5 mg/kg: 0%
[51]
  Activity: 64%
[37]
  Activity: 30%
